Results published in US20240108738A1, “BICYCLIC PEPTIDE LIGANDS SPECIFIC FOR NK CELLS” (Bicycle Tx Limited, priority 2021, published 2024).
Numbered stars: 1 amine (or outer) side, 2 acyl side, 3 side chain; on linkers, the order of the positions; unused ones are H or OH. Bridge positions count the residues as written; N and C are the ends. Square brackets hold non-standard residues; d marks the D form. Peptide text beside a SMILES is read from it. TATA = O=C(CC[*:1])N1CN(C(=O)CC[*:2])CN(C(=O)CC[*:3])C1; dCha = N[C@H](CC1CCCCC1)C(=O)O; Cba = N[C@@H](CC1CCC1)C(=O)O; dNva = CCC[C@@H](N)C(=O)O

biological target: T1, Fc-tagged human NKp46 (Homo sapiens, UniProt O76036); test: NKp46 SPR assay (Method 1 and/or Method 2); format: binding; details: SPR Method 1 and/or Method 2, Table 3B
T1 construct: purchased ACROBiosystems NC1-H5257
Method: SPR experiments were performed to determine ka (M^−1s^−1), kd (s^−1), KD (nM) values (where measurable) of various bicyclic peptides to immobilised NKp46.
For analysis of peptide binding to NKp46, a Biacore 3000 instrument was used with a Cytiva Streptavidin chip. Capture of the protein (recombinant human NKp46-Fc fusion biotinylated via Avi-tag) was carried out at 25° C. with HBS-N (10 mM HEPES, 0.15 M NaCl, pH 7.4) as the running buffer and biotinylated NKp46 was captured to a level of 400-800 RU using a dilution of protein to 0.2 μM in buffer. Buffer was then changed to PBS/0.05% Tween 20 and a dilution series of the peptides was prepared in this buffer with a final DMSO concentration of 0.5% with a top peptide concentration of 100 nM-5000 nM and 6 further 2 or 3-fold dilutions. The SPR analysis was run at 25° C. and a flow rate of 50 μl/min with 60 seconds association and 200-400 seconds dissociation time. Data were corrected for DMSO excluded volume effects. All data were double-referenced for blank injections and reference surface using standard processing procedures and data processing and kinetic fitting were performed using Scrubber software, version 2.0c (BioLogic Software). Data were fitted using simple 1:1 binding model allowing for mass transport effects where appropriate.
Peptides were tested against Fc-tagged human NKp46 (ACROBiosystems, cat no. NC1-H5257).
For analysis of peptide binding, a Biacore 8k+ instrument was used with a CM5 chip (Cytiva). All experiments were carried out at 25° C. Anti-human IgG (Fc) antibody (Cytiva) was immobilized on all flow cells by standard amine coupling chemistry. The running buffer was HBS-N(Cytiva, 10 mM HEPES, 0.15 M NaCl, pH 7.4) and the flow rate was 10 μL/min. The carboxymethyl dextran surface was activated with a 1:1 ratio of 0.4 M 1-ethyl-3-(3-dimethylaminopropyl) carbodiimide hydrochloride (EDC)/0.1 M N-hydroxy succinimide (NHS) (Cytiva) for 420s. […] Residual activated groups were blocked with a 420 s injection of 1 M ethanolamine (pH 8.5). The final surface density was 3000-5000 RU. Fc-tagged human NKp46 was diluted to 0.1 μM in HBS-N and was captured on flow cell 2 only of the sensor chip at a flow rate of 10 μL/min to 500-1000 RU. The buffer was then changed to PBS-P+(Cytiva) supplemented with 2% DMSO. […] The flow rate was 50 μL/min with 60 s association and 400 s dissociation. Data were corrected for DMSO volume exclusion effects. All data were double-referenced against blank injections and reference surface response using standard processing procedures. Data processing and kinetic fitting was performed using Biacore Insight Evaluation Software with Extended Screening and Characterization Extension (Cytiva). Data were fitted using steady state affinity 1:1 binding model to determine KD. Data were fitted using kinetic 1:1 binding model to determine kinetic constants where appropriate.

T1 sequence (O76036 22-304): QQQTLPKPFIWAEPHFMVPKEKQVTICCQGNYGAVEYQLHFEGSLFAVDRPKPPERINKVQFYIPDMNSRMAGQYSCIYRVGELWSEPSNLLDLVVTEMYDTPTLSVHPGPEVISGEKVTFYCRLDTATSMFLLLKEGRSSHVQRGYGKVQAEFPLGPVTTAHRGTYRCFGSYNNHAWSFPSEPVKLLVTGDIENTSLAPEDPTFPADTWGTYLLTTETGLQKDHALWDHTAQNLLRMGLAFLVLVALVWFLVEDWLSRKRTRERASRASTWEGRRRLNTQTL

Kd [nM]	SMILES
5380	CSCC[C@@H]1NC(=O)[C@@H]2CSCCC(=O)N3CN(CN(C3)C(=O)CCSC[C@@H](C(=O)N[C@@H](C)C(N)=O)NC(=O)[C@H](C(C)C)NC(=O)[C@H](CCCCN)NC(=O)CNC(=O)[C@H](C)NC(=O)[C@H](CC(C)C)NC1=O)C(=O)CCSC[C@H](NC(=O)[C@H](C)N)C(=O)N[C@@H](CC(N)=O)C(=O)N[C@@H](CC(C)C)C(=O)N[C@@H](CCC(N)=O)C(=O)N[C@@H](C)C(=O)N1CCC[C@H]1C(=O)N2 [BCY18302, A-(SEQ ID NO: 66)-A] (H-ACNLQAPCMLAGKVCA-NH2; linker 2-8-15 via TATA; N-terminus assumed)
1460	CC[C@H](C)[C@@H]1NC(=O)[C@@H](C)NC(=O)[C@H](Cc2c[nH]c3ccccc23)NC(=O)[C@H](CCC(N)=O)NC(=O)[C@@H]2CSCCC(=O)N3CN(CN(C3)C(=O)CCSC[C@@H](C(=O)N[C@@H](C)C(N)=O)NC1=O)C(=O)CCSC[C@H](NC(=O)[C@H](C)N)C(=O)N[C@@H](CC(=O)O)C(=O)N[C@@H](CC(C)C)C(=O)N[C@@H]([C@@H](C)O)C(=O)N[C@@H]([C@@H](C)O)C(=O)N[C@@H](Cc1c[nH]cn1)C(=O)N[C@@H](CC(N)=O)C(=O)N2 [BCY18292, A-(SEQ ID NO: 135)-A] (H-ACDLTTHNCQW[dA]ICA-NH2; linker 2-9-14 via TATA; N-terminus and C-terminus assumed)
1460	CC[C@H](C)[C@@H]1NC(=O)CNC(=O)[C@H](Cc2c[nH]c3cc(C)ccc23)NC(=O)[C@H](CCC(N)=O)NC(=O)[C@@H]2CSCCC(=O)N3CN(CN(C3)C(=O)CCSC[C@@H](C(=O)N[C@@H](C)C(N)=O)NC1=O)C(=O)CCSC[C@H](NC(=O)[C@H](C)N)C(=O)N[C@@H](CC(=O)O)C(=O)N[C@@H](CC(C)C)C(=O)N[C@@H]([C@@H](C)O)C(=O)N[C@@H]([C@@H](C)O)C(=O)N[C@@H](Cc1c[nH]cn1)C(=O)N[C@@H](CC(N)=O)C(=O)N2 [BCY19722, A-(SEQ ID NO: 160)-A]
10	CC(=O)N[C@H]1CSCCC(=O)N2CN3CN(C2)C(=O)CCSC[C@H](NC(=O)[C@H](CC(C)C)NC(=O)[C@H](Cc2ccc(O)cc2)NC(=O)[C@H](CC(=O)O)NC(=O)[C@@H]2CCCN2C(=O)[C@H](CC2CCC2)NC(=O)[C@H](Cc2ccc(O)cc2)NC1=O)C(=O)N[C@H](CC1CCCCC1)C(=O)N[C@@H](CC(=O)O)C(=O)N[C@@H](CCC(=O)O)C(=O)N[C@@H](Cc1ccc(O)cc1)C(=O)N[C@H](C(N)=O)CSCCC3=O [BCY19683, Ac-(SEQ ID NO: 147)] (Ac-CY[Cba]PDYLC[dCha]DEYC-NH2; linker 1-8-13 via TATA; C-terminus assumed)
3.9	CCC[C@H]1NC(=O)[C@@H]2CSCCC(=O)N3CN(CN(C3)C(=O)CCSC[C@H](NC(C)=O)C(=O)N[C@@H](Cc3ccc(O)cc3)C(=O)N[C@@H](CC3CCC3)C(=O)N3CCC[C@H]3C(=O)N[C@@H](CC(=O)O)C(=O)N[C@@H](Cc3ccc(O)cc3)C(=O)N[C@@H](CC(C)C)C(=O)N2)C(=O)CCSC[C@@H](C(N)=O)NC(=O)[C@H](Cc2ccc(O)cc2)NC(=O)[C@H](CCC(=O)O)NC(=O)[C@H](CC(=O)O)NC1=O [BCY18444, Ac-(SEQ ID NO: 145)] (Ac-CY[Cba]PDYLC[dNva]DEYC-NH2; linker 1-8-13 via TATA)
> 500	CC(=O)N[C@H]1CSCCC(=O)N2CN3CN(C2)C(=O)CCSC[C@H](C(N)=O)NC(=O)[C@H](Cc2ccc(O)cc2)NC(=O)[C@H](CCC(=O)O)NC(=O)[C@H](CC(=O)O)NC(=O)[C@@H](C)NC(=O)[C@H](CSCCC3=O)NC(=O)[C@H](CC(C)C)NC(=O)[C@H](Cc2ccc(O)cc2)NC(=O)[C@H](CC(=O)O)NC(=O)[C@@H]2CCCN2C(=O)[C@H](CC2CCC2)NC(=O)[C@H](Cc2ccc(O)cc2)NC1=O [BCY19692, Ac-(SEQ ID NO: 156)] (Ac-CY[Cba]PDYLC[dA]DEY[dC]-NH2; linker 1-8-13 via TATA)

Further lines, the molecule ahead of its results:

SMILES	Kd [nM]
CC[C@H](C)[C@@H]1NC(=O)CNC(=O)[C@H](Cc2c[nH]c3ccccc23)NC(=O)[C@H](CCC(N)=O)NC(=O)[C@@H]2CSCCC(=O)N3CN(CN(C3)C(=O)CCSC[C@@H](C(=O)N[C@@H](C)C(N)=O)NC1=O)C(=O)CCSC[C@H](NC(=O)[C@H](C)N)C(=O)N[C@@H](CC(=O)O)C(=O)N[C@@H](CC(C)C)C(=O)N[C@@H](C)C(=O)N[C@@H]([C@@H](C)O)C(=O)N[C@@H](Cc1c[nH]cn1)C(=O)N[C@@H](CC(N)=O)C(=O)N2 [BCY18265, A-(SEQ ID NO: 117)-A] (H-ACDLATHNCQWGICA-NH2; linker 2-9-14 via TATA; C-terminus assumed)	1480
CC[C@H](C)[C@@H]1NC(=O)[C@H]([C@@H](C)CC)NC(=O)[C@@H]2CCCN2C(=O)[C@H](Cc2c[nH]cn2)NC(=O)[C@H]([C@@H](C)O)NC(=O)[C@H](CC(N)=O)NC(=O)[C@@H]2CCCN2C(=O)[C@@H]2CSCCC(=O)N3CN(CN(C3)C(=O)CCSC[C@@H](C(=O)N[C@@H](C)C(N)=O)NC1=O)C(=O)CCSC[C@H](NC(=O)[C@H](C)N)C(=O)N[C@@H](CC(C)C)C(=O)N[C@@H](CC(C)C)C(=O)N[C@@H](Cc1c[nH]cn1)C(=O)N[C@@H](CC(=O)O)C(=O)N[C@@H](Cc1c[nH]cn1)C(=O)N2 [BCY15106, A-(SEQ ID NO: 8)-A] (H-ACLLHDHCPNTHPIICA-NH2; linker 2-8-16 via TATA)	2670
CC[C@H](C)[C@@H]1NC(=O)CNC(=O)[C@H](Cc2cn(C)c3ccccc23)NC(=O)[C@H](CCC(N)=O)NC(=O)[C@@H]2CSCCC(=O)N3CN(CN(C3)C(=O)CCSC[C@@H](C(=O)N[C@@H](C)C(N)=O)NC1=O)C(=O)CCSC[C@H](NC(=O)[C@H](C)N)C(=O)N[C@@H](CC(=O)O)C(=O)N[C@@H](CC(C)C)C(=O)N[C@@H]([C@@H](C)O)C(=O)N[C@@H]([C@@H](C)O)C(=O)N[C@@H](Cc1c[nH]cn1)C(=O)N[C@@H](CC(N)=O)C(=O)N2 [BCY18288, A-(SEQ ID NO: 131)-A]	354
CC[C@H](C)[C@@H]1NC(=O)CNC(=O)[C@H](Cc2c[nH]c3ccccc23)NC(=O)[C@H](CCC(N)=O)NC(=O)[C@@H]2CSCCC(=O)N3CN(CN(C3)C(=O)CCSC[C@H](N)C(=O)N[C@@H](CC(=O)O)C(=O)N[C@@H](CC(C)C)C(=O)N[C@@H]([C@@H](C)O)C(=O)N[C@@H]([C@@H](C)O)C(=O)N[C@@H](Cc3c[nH]cn3)C(=O)N[C@@H](CC(N)=O)C(=O)N2)C(=O)CCSC[C@@H](C(N)=O)NC1=O [BCY18262, (SEQ ID NO: 11)]	3180
CSCC[C@@H]1NC(=O)[C@@H]2CSCCC(=O)N3CN(CN(C3)C(=O)CCSC[C@@H](C(=O)N[C@@H](C)C(N)=O)NC(=O)[C@H](C(C)C)NC(=O)[C@H](CCCCN)NC(=O)CNC(=O)[C@H]([C@@H](C)O)NC(=O)[C@H](CCC(N)=O)NC1=O)C(=O)CCSC[C@H](NC(=O)[C@H](C)N)C(=O)N[C@@H](CC(N)=O)C(=O)N[C@@H](CC(C)C)C(=O)N[C@@H](CCC(N)=O)C(=O)N[C@@H](C)C(=O)N1CCC[C@H]1C(=O)N2 [BCY15098, A-(SEQ ID NO: 3)-A]	1070
CSCC[C@@H]1NC(=O)[C@@H]2CSCCC(=O)N3CN(CN(C3)C(=O)CCSC[C@@H](C(=O)N[C@@H](C)C(N)=O)NC(=O)[C@@H]3CCCN3C(=O)[C@H](Cc3ccccc3)NC(=O)[C@H](CCCCN)NC1=O)C(=O)CCSC[C@H](NC(=O)[C@H](C)N)C(=O)N[C@@H](CC(N)=O)C(=O)N[C@@H](CC(C)C)C(=O)N[C@@H](CCC(N)=O)C(=O)N[C@@H](CC(N)=O)C(=O)N1CCC[C@H]1C(=O)N2 [BCY15102, A-(SEQ ID NO: 2)-A] (H-ACNLQNPCMKFPCA-NH2; linker 2-8-13 via TATA; C-terminus assumed)	1090 ± 99
